# In PMC6892914, “Interactions of Ionic Liquids and Spirocyclic Compounds with Liposome Model Membranes. A Steady-State Fluorescence Anisotropy Study” (Scientific Reports, 2019):
# Assays:
# [1] = Steady-state fluorescence anisotropy of DPH-doped liposomes, POPC/POPS 80:20; format: physicochemical; details: compound 50 mM, 5 min incubation at RT
# Excerpt: (§1) The technique used in the present study was steady-state fluorescence anisotropy spectroscopy (fluorescence anisotropy or anisotropy in the following text). The technique was utilised to detect organisational changes within the lipid bilayer using a fluorescent 1,6-diphenyl-1,3,5-hexatriene (DPH) probe. DPH is advantageous in the present application due to its high quantum yield and its ability to indicate subtle changes in the lipid acyl chain organisation. For general reviews on the technique, see Shinitzky & Barenholz[18] and Lentz[19]. The rod-like hydrophobic probe is rotating within the bilayer structure by Brownian motion and it is located between the hydrophobic acyl chains of the lipids. When the probe-containing liposomes are illuminated with UV-light at a fixed wavelength and a fixed level of polarized light, the probe is first excited and subsequently emits light that is partly depolarized, due to the molecular rotations of the probe. This depolarization can be measured as a numerical value of anisotropy (r), as shown by Eq. 1.1 r=I||−I⊥/IT where I|| and I⊥ are the intensities of emitted light parallel and perpendicular to the plane of excitation, respectively. IT is the total intensity of emitted light.
# (§2) A reference anisotropy value for each pure liposome was determined daily. This was performed in order to normalise the liposome batch-to-batch and liposome-aging-dependent variation of the anisotropy values. The anisotropy was measured ten times and the mean ± standard deviation was calculated. Subsequently, the pure liposomes and the compounds under investigation were mixed and incubated at room temperature for 5 min, before measuring the anisotropy.
# (§3) The lipids and the DPH probe were dissolved in chloroform as stock solutions and the stocks were mixed to give the target molar proportions for each liposome composition (Table 2). After mixing the chloroform lipid stocks, the lipid mixture was dried as a thin film on test tube walls by evaporating the chloroform using a flow of air, until no solvent was visible. The dried thin film of lipids was kept under vacuum for at least 12 h in a desiccator, in order to remove any traces of solvent. Ultra-pure water was added to reach the target lipid concentration of 4.0 mM. […] The aqueous mixture of DPH, lipids and water were incubated under agitation for 60 min at 65 °C and 75 °C to form the non-cholesterol-containing and cholesterol-containing multilamellar liposomes, respectively. Subsequently, the 4.0 mM liposome stock dispersions were extruded through 100 nm pore-size polycarbonate filters 19 times using an Avanti mini-extruder (Avanti Polar Lipids, Alabaster, AL, USA) in order to obtain unilamellar liposomes.
# (§4) The fluorescence anisotropy values were measured using a Horiba Jobin Yvon (Northampton, UK) FluoroMax-4 spectrofluorometer, in L-format. The emission and the excitation […] were always set to the same value (8–10 nm) so that the photon counts/second at the detector were as recommended by the manufacturer (from 500 000 to 2 000 000 counts/second). The excitation and emission wavelengths were 360 nm and 450 nm, respectively. The measurements were performed at 21 ± 1 °C. Physiological temperature was not used, since the interactions between the living organism (Vibrio Fischeri) also takes place at a non-physiological temperature of 15 °C. The maximum 7 °C difference (15 °C vs. 22 °C) was considered acceptable. A reference value for the pure liposomes was measured daily. In order to study the interaction between the compounds and the liposomes, the pure liposomes were mixed with the compounds so that the final concentration of the lipids was 20 µM and that of the studied compounds was 50 mM. […] Both concentrations were selected by trial and error.
# [2] = Steady-state fluorescence anisotropy of DPH-doped liposomes, POPC/POPS/Chol 55:20:25; format: physicochemical; details: compound 50 mM, 5 min incubation at RT
# Excerpt: as §1, §2, §3, §4
# [3] = Steady-state fluorescence anisotropy of DPH-doped liposomes, POPC; format: physicochemical; details: 5 min incubation at RT
# Excerpt: as §1, §2, §3
# as §4, with “daily.” for “daily. In order to study the interaction between the compounds and the liposomes, the pure liposomes were mixed with the compounds so that the final concentration of the lipids was 20 µM and that of the studied compounds was 50 mM.”
# [4] = Steady-state fluorescence anisotropy of DPH-doped liposomes, POPC/Chol 75:25; format: physicochemical; details: compound 50 mM, 5 min incubation at RT
# Excerpt: as §1, §2, §3, §4
# [5] = Steady-state fluorescence anisotropy, stated over the liposome compositions; format: physicochemical; details: four liposome compositions; compound 50 mM
# Excerpt: as §1
# as §2, with “anisotropy. Similar to the reference measurements, the fluorescence anisotropy value after incubation with the ILs was recorded 10 times and the mean ± standard deviation was calculated.” for “anisotropy.”
# In this equation r0 is the fundamental anisotropy in the absence of rotational diffusion of the probe, i.e. the maximum anisotropy value achievable using the specific excitation wavelength. At 360 nm r0 = 0.362 for DPH[26]. C(r) relates the molecular shape and the location of the transition dipoles of the rotating probe into one parameter. For spherical probes C(r) = k/v, where k is the Boltzmann constant and v is the effective volume of the probe. Therefore, C(r) would be constant for spherical molecules, but for other shapes, such as the rod-like DPH, the value is dependent on the experimental value of r. In contrast, as experimentally determined by Shinitzky and Barenholtz, the factor C(r)· T· τ = 240 mPa · s is relatively constant at 0–40 °C in membranes doped with DPH probe. T and τ are the temperature during the experiment and lifetime of the excited state, respectively. By substituting r0 = 0.362 and C(r)· T· τ = 240 mPa · s and by further rearranging of the Eqs. 2 and 3 is obtained.3 η=240mPas⋅r/0.362−r
# The equation gives the approximate apparent microviscosity (±15%) based on the recorded anisotropy values. The benefit of determining this is the hyperbolic growth of the apparent microviscosity relatively to anisotropy. […]
# In order to compare the anisotropy values with the toxicity values in greater detail, the relative change in anisotropy Δr (%) was calculated as given by Eq. 44 Δr=rliposome+toxicant−rpureliposome/rpureliposome where rpure liposome is the daily anisotropy value measured for each pure liposome and r liposome+toxicant the anisotropy value measured after mixing the pure liposome with the compound of interest. […]
# [6] = Steady-state fluorescence anisotropy of DPH-doped liposomes, POPC/POPS/Chol 55:20:25; format: physicochemical; details: compound 0.2 mM, 5 min incubation at RT
# [7] = Steady-state fluorescence anisotropy of DPH-doped liposomes, POPC/Chol 75:25; format: physicochemical; details: compound 0.2 mM, 5 min incubation at RT
# [8] = Steady-state fluorescence anisotropy of DPH-doped liposomes, POPC/POPS 80:20; format: physicochemical; details: compound 0.2 mM, 5 min incubation at RT
# [9] = 333 mM; cited from earlier work
Molecule,"Relative change in anisotropy, Δr [1] [%]","Relative change in anisotropy, Δr [2] [%]","Relative change in anisotropy, Δr ([3]; compound 50 mM) [%]","Relative change in anisotropy, Δr [4] [%]","Δr, range depending on the liposome composition [5]","Relative change in anisotropy, Δr [6] [%]","Relative change in anisotropy, Δr [7] [%]","Relative change in anisotropy, Δr [8] [%]","Relative change in anisotropy, Δr ([3]; compound 0.2 mM) [%]",changes in fluorescence polarisation [9] [%]
"5-Methyl-1,5,7-triazabicyclo[4.3.0]non-6-enium & 7-Methyl-1,5,7-triazabicyclo[4.3.0]non-5-enium mesylate [[MTBNH][OMs]]",-26,-36,-20,-27,–,–,–,–,–,–
"CC(=O)[O-].[Na+] [NaOAc, Sodium acetate, reference compound]",13,12,11,12,11–13%,–,–,–,–,–
"CS(=O)(=O)[O-].[Na+] [NaOMs, Sodium mesylate, reference compound]",11,13,17,6,6–17%,–,–,–,–,–
"C1CC[N+]2(CC1)CCCC2.CC(=O)[O-] [[4.5][OAc], 5-Azoniaspiro[4.5]decane acetate]",-5,-6,6,-1,−6% to +6,–,–,–,–,–
"C1CC[N+]2(CC1)CCCCC2.CC(=O)[O-] [[5.5][OAc], 6-Azoniaspiro[5.5]undecane acetate]",-18,-25,-16,-18,–,–,–,–,–,–
"C1CCC[N+]2(CC1)CCCCC2.CC(=O)[O-] [[5.6][OAc], 6-Azoniaspiro[5.6]dodecane acetate]",-22,-27,-19,-21,–,–,–,–,–,–
"C1CCC2=NCCCN2CC1.CS(=O)(=O)O [[DBUH][OMs], 1,8-Diazabicyclo[5.4.0]undec-7-enium mesylate]",-33,-39,-24,-31,–,–,–,–,–,–
"CC(=O)[O-].CCCCCCCC[P+](C)(CCCCCCCC)CCCCCCCC [[P8881][OAc], Methyltrioctylphosphonium acetate]",–,–,–,–,–,-47,-41,-36,-19,–
"CCN(CC)CC.CS(=O)(=O)O [[TEAH][OMs], Triethylammonium mesylate]",-5,-4,7,2,−5% to +7,–,–,–,–,–
"CN(C)C(=N)N(C)C.CS(=O)(=O)O [[TMGH][OMs], 1,1,3,3-Tetramethylguanidinium mesylate]",6,5,11,3,3–11%,–,–,–,–,–
CCO [ethanol],–,–,–,–,–,–,–,–,–,< 10
